Laboratory results as given in paper PMC2064103 (The Journal of Cell Biology, 2007).

Experiments:
Assay in all cases: radiolabelled glycopeptide formation, ConA Sepharose capture, gamma counting
[1] = tested on: T. vaginalis OST; assay type: biochemical, Trichomonas vaginalis; details: 10 μM acceptor tripeptide; Mg2+, Mn2+, pH 7.4; non-cooperative
[2] = tested on: E. histolytica OST; assay type: biochemical, Entamoeba histolytica; details: 15 μM acceptor tripeptide; Mg2+, Mn2+, pH 7.4; non-cooperative
[3] = tested on: T. cruzi OST; assay type: biochemical, Trypanosoma cruzi; details: 10 μM acceptor tripeptide; Mg2+, Mn2+, pH 7.4; non-cooperative

Row | Substance | Km [1] [µM] | Km [2] [µM] | Km [3] [µM]
1 | M5GN2-PP-Dol | 0.22 | 0.72 | –
2 | M9GN2-PP-Dol | – | – | 0.49
